The first assay concerns the target T1, Human Factor D (Homo sapiens, UniProt P00746).
T1 construct: purified from human serum; purchased Complement Technology, Inc; host or cells: human serum (natural protein, not recombinant)
In words: Human Factor D Assay. The class given is biochemical. Particulars: Human Factor D 80 nM, substrate Z-L-Lys-SBzl, assay of Example 3; read-out: IC50 (Stars). The method, boiled down:
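Serum-purified human factor D (80 nM final) preincubated 5 min at room temperature with test compound in 50 mM Tris, 1M NaCl, pH 7.5. Z-L-Lys-SBzl substrate and DTNB then added, each at 100 μM final. IC50 from nonlinear regression of reaction rate against compound concentration.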
T1 sequence (P00746 26-253): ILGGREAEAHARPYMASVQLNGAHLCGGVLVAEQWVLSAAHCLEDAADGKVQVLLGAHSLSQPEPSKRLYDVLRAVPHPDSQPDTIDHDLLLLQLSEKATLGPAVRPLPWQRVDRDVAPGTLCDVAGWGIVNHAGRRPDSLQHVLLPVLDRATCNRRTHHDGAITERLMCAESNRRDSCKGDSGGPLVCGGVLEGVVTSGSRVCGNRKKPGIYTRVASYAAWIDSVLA
The term IC50 denotes the concentration that gives 50% inhibition. Take `CC(=O)c1nn(CC(=O)N2[C@H](C(=O)Nc3nc(Br)ccc3C)C[C@@]3(C)C[C@@H]23)c2c(C)cc(-c3cnc(CO)nc3)cc12` [Compound 27, (1R,3S,5R)-2-(2-(3-Acetyl-5-(2-(hydroxymethyl)pyrimidin-5-yl)-7-methyl-1H-indazol-1-yl)acetyl)-N-(6-bromo-3-methylpyridin-2-yl)-5-methyl-2-azabicyclo[3.1.0]hexane-3-carboxamide]: the IC50 is below 1 µM.

As for `CC(=O)c1nn(CC(=O)N2[C@H](C(=O)Nc3nc(Br)ccc3C)C[C@@]3(C)C[C@@H]23)c2c(C)cc(-c3cnc(C)nc3O)cc12` [Compound 28, (1R,3S,5R)-2-(2-(3-acetyl-5-(4-hydroxy-2-methylpyrimidin-5-yl)-7-methyl-1H-indazol-1-yl)acetyl)-N-(6-bromo-3-methylpyridin-2-yl)-5-methyl-2-azabicyclo[3.1.0]hexane-3-carboxamide], the IC50 is below 1 µM.

The assay is the same for the next values; noted with them: Human Factor D 80 nM, substrate Z-L-Lys-SBzl; Table 2; read-out: IC50 (Stars).
`CC(=O)c1nn(CC(=O)N2C[C@H]3C[C@H]3[C@H]2C(=O)Nc2nc(Br)ccc2C)c2ccc(-c3cnc(CO)nc3)cc12` [Compound 63, (1R,2S,5S)-3-(2-(3-acetyl-5-(2-(hydroxymethyl)pyrimidin-5-yl)-1H-indazol-1-yl)acetyl)-N-(6-bromo-3-methylpyridin-2-yl)-3-azabicyclo[3.1.0]hexane-2-carboxamide]: the IC50 is below 1 µM. For `CC(=O)c1cn(CC(=O)N2[C@H](C(=O)Nc3nc(C(F)(F)F)ccc3C)C[C@@]3(C)C[C@@H]23)c2c(C)cc(-c3cnc4cc(CF)nn4c3)cc12` [Compound 228, (1R,3S,5R)-2-(2-(3-acetyl-5-(2-(fluoromethyl)pyrazolo[1,5-a]pyrimidin-6-yl)-7-methyl-1H-indol-1-yl)acetyl)-5-methyl-N-(3-methyl-6-(trifluoromethyl)pyridin-2-yl)-2-azabicyclo[3.1.0]hexane-3-carboxamide], the IC50 was below 1 µM.

Regarding `CC(=O)c1nn(CC(=O)N2[C@H](C(=O)Nc3nc(OC(F)(F)F)ccc3C)C[C@@]3(C)C[C@@H]23)c2c(C)cc(-c3cnc(CO)nc3)cc12` [Compound 55, (1R,3S,5R)-2-(2-(3-acetyl-5-(2-(hydroxymethyl)pyrimidin-5-yl)-7-methyl-1H-indazol-1-yl)acetyl)-5-methyl-N-(3-methyl-6-(trifluoromethoxy)pyridin-2-yl)-2-azabicyclo[3.1.0]hexane-3-carboxamide], the IC50 was below 1 µM. With `CC(=O)c1nn(CC(=O)N2[C@H](C(=O)Nc3nc(C(F)(F)F)ccc3C)C[C@@]3(C)C[C@@H]23)c2ccc(-c3cnc4cc(C)nn4c3)cc12` [Compound 212, (1R,3S,5R)-2-(2-(3-acetyl-5-(2-methylpyrazolo[1,5-a]pyrimidin-6-yl)-1H-indazol-1-yl)acetyl)-5-methyl-N-(3-methyl-6-(trifluoromethyl)pyridin-2-yl)-2-azabicyclo[3.1.0]hexane-3-carboxamide], the IC50 is below 1 µM. Same read-out and setting: the figure for `CC(=O)c1ncc(-c2cc(C)c3c(c2)c(C(C)=O)nn3CC(=O)N2[C@H](C(=O)Nc3nc(Br)ccc3C)C[C@@]3(C)C[C@@H]23)cn1` [Compound 58] is below 1 µM; for `CC(=O)c1nn(CC(=O)N2[C@H](C(=O)Nc3cncc(Br)n3)C[C@@]3(C)C[C@@H]23)c2c(C)cc(-c3cnc(CO)nc3)cc12` [Compound 48, (1R,3S,5R)-2-(2-(3-acetyl-5-(2-(hydroxymethyl)pyrimidin-5-yl)-7-methyl-11H-indazol-1-yl)acetyl)-N-(6-bromopyrazin-2-yl)-5-methyl-2-azabicyclo[3.1.0]hexane-3-carboxamide] it is below 1 µM; for `CC(=O)c1nn(CC(=O)N2C[C@H]3C[C@H]3[C@H]2C(=O)Nc2nc(Br)c(F)cc2C)c2c(C)cc(-c3cnc(C(C)O)nc3)cc12` (stereo partly drawn) [Compound 165, (1R,2S,5S)-3-(2-(3-acetyl-5-(2-(1-hydroxyethyl)pyrimidin-5-yl)-7-methyl-1H-indazol-1-yl)acetyl)-N-(6-bromo-5-fluoro-3-methylpyridin-2-yl)-3-azabicyclo[3.1.0]hexane-2-carboxamide] it is below 1 µM.

The record behind these values is US20230022157A1 (Achillion Pharmaceuticals, Inc., priority 2018, published 2023).
